In the NIST ThermoML archive (doi:10.1016/j.fluid.2007.04.014):
Numbers after ± are expanded uncertainties.

Tests used:
[1] = Crystal; Closed cell (Static) method
[2] = Solid-liquid equilibrium temperature; conditions: Crystal, Closed cell (Static) method

CCCCCCCCCCCCCCCCC [heptadecane]
Conditions | Normal melting temperature [°C]
[1] | 22.20 ± 0.4

[2]
Conditions | Solid-liquid equilibrium temperature [K]
20800 kPa | 299.75 ± 0.46
40100 kPa | 304.05 ± 0.48
60100 kPa | 308.3 ± 0.49
80100 kPa | 312.4 ± 0.5
99300 kPa | 316.5 ± 0.51
